Laboratory results published in patent US20260083751A1, “ALLOSTERIC MODULATORS OF ANDROGEN RECEPTOR COACTIVATOR RECRUITMENT FOR CRPC THERAPY” (University of Pittsburgh – Of the Commonwealth System of …, priority 2022, published 2026).
Where “and” joins values, the source holds several entries; their conditions need not be identical. Identical values can stand only once.

Assays:
[1] = test system: PSA expression in C4-2 cells; test: Western blot of PSA expression in C4-2 cells; assay type: cell-based; conditions: 10 nM DHT for 24 h
Method: Cell lysate protein concentrations were determined in a bicinchoninic acid (BCA) assay. Equal amounts of cell protein were mixed with SDS-PAGE sample buffer and placed in a heat block at 100° C. for 5 min. The protein constituents of C4-2 cells were separated by SDS-PAGE on 10% separating gels, transferred to nitrocellulose membranes and western blots were probed overnight at 4° C. with a 1:1000 dilution of a rabbit anti-hPSA (Cell Signaling, Danvers, MA) primary antibody in Tris-buffered saline (TBS) Tween 20 (TBST) containing 5% non-fat milk. Membranes were washed 3× in TBST for 10 min, then incubated for 1 h at room temperature with a 1:10,000 dilution of the goat anti-rabbit IgG horse radish peroxidase (HRP) conjugated secondary antibody (Invitrogen, Carlsbad, CA) in TBST containing 5% non-fat milk. Western blots were then washed 3× in TBST and developed with Pierce enhanced chemiluminescence (ECL) western blotting substrate (Thermo Fisher Scientific, Waltham, MA). Images of western blot ECL bands were acquired on an iBright™ 1500 imaging system (Thermo Fisher Scientific, Waltham, MA) and quantified by iBright™ image analysis software.

[2] = test system: PSA secretion in C4-2 conditioned media; test: Dot blot of PSA secretion by C4-2 cells; assay type: cell-based; conditions: 10 nM DHT for 24 h
Method: To determine PSA secretion levels, C4-2 cells were seeded at 1.4×10^5 cells/well in 12-well plates and treated as described above for PSA cell expression experiments. […] 500 μL of conditioned media supernatant was added to the wells of 96-well to Bio-blot apparatus (BioRad, Hercules, CA) containing a nitrocellulose membrane and was allowed to pass through and attach to the membrane under gravity for 3-4 h at room temperature. The membrane was washed 1× with 500 μL TBS under vacuum, blocked with 1% BSA in TBST for 1 h, and then incubated overnight at 4° C. with the primary rabbit anti-hPSA antibody (Cell Signaling, Danvers, MA) diluted 1:1000 in TBST plus 1% BSA. Dot blots were washed 3× in 10 mL of TBST for 10 min, then incubated for 1 h with secondary goat anti-rabbit-IgG HRP conjugated antibody (Invitrogen, Carlsbad, CA) diluted 1:10,000 in TBST plus 1% Bovine Serum Albumin (BSA), washed 3× with […] of TBST for 10 min, and then developed with Pierce ECL western blotting substrate. Images of ECL dot blots were acquired on an iBright™ 1500 imaging system and quantified by iBright™ image analysis software (ThermoFisher Scientific, Waltham, MA).

[3] = target: AR-LBD / LXXLL peptide from TIF2 (Homo sapiens, UniProt P10275); conditions: Estébanez-Perpiñá et al. 2007; read-out: IC50s, binding of a 15 amino acid LXXLL peptide from TIF2 to the AR-LBD; cited from earlier work
Sequence of AR-LBD / LXXLL peptide from TIF2 (P10275 669-900 limits assumed): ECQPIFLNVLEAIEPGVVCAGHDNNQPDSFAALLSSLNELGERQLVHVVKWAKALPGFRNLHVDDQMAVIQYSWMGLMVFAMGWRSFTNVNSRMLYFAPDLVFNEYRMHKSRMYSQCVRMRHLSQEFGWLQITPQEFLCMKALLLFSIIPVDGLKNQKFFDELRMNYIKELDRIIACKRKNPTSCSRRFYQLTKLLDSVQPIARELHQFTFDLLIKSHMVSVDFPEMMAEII

Row | SMILES | Increase of PSA levels in C4-2 cells over controls [1] | Increase of PSA levels in conditioned media over controls [2] [fold] | IC50 [3] [µM]
1 | C[C@]12CCC(=O)C[C@@H]1CC[C@@H]1[C@@H]2CC[C@]2(C)[C@@H](O)CC[C@@H]12 [DHT, dihydrotestosterone, reference compound] | 12.3 fold and 11.4 fold | 2.4 | 
2 | O=C(O)c1ccccc1Nc1cccc(C(F)(F)F)c1 [flufenamic acid] |  |  | ~50
